Consider one molecule from patent US20130237582A1, “PHARMACEUTICAL COMBINATION OF PACLITAXEL AND A CDK INHIBITOR” (Piramal Enterprises Limited, priority 2010, published 2013).

Entries after “also recorded” stand apart in the source; their conditions may differ.

One test relates to CDK4. Description: Western blot of cell cycle proteins in MDA-MB-231. In kind it is cell-based, human. To be noted: 1.5 μM and 5 μM, 24 h. The procedure:
(§1) Correlation of PARP activity and cell cycle proteins cyclin D1, total Rb and pRb 780 were studied in two TNBC cell lines viz. MDA-MB-468 and MDA-MB-231. MDA-MB-231 and MDA-MB-468 cells were seeded in RPMI 1460 medium with 10% FCS in […] tissue culture flask and incubated for 24 h. These cells were treated at 1.5 μM and 5 μM Compound A for 24 h. The cells were harvested (trypsinised) and lysed using lysis buffer. Western blotting was carried out (Molecular Cancer […], 2007, 6, 918-925) using specific antibody to PAR, PARP, cyclin D1, CDK4 and pRb Ser 780.
(In general: In western blotting, separated proteins are transferred to a membrane and probed.)

Another test concerns cyclin D1. Nature of the test: Western blot of cell cycle proteins in MDA-MB-231. The format is cell-based, human. Particulars: 1.5 μM and 5 μM, 24 h. The procedure: as §1
The next test deals with pRb Ser 780. Nature of the test: Western blot of cell cycle proteins in MDA-MB-231. Particulars: 1.5 μM and 5 μM, 24 h. In kind it is cell-based, human. The procedure: as §1
Another test has as its system MDA-MB-231. Description: Cell cycle progression and apoptosis by flow cytometry (sub-G1). The format is cell-based, human. To be noted: for % Apoptosis: 4.5 μM. The procedure: (§2) Time dependent effect of Compound A on cell cycle progression and apoptosis was evaluated in two breast cancer cell lines. The asynchronous human breast cancer cell lines MCF-7 (Her low, ER+, PR+, BRCA+/−allelic loss) and MDA-MB-231 cells were seeded in […] tissue culture flask at a density of 0.5×10^6 cells per flask in RPMI 1460 with 10% FCS. After 24 h, cells were treated with 4.5 μM of Compound A for 0, 24, 48 and 72 h. Both detached and adherent cells were harvested (trypsinised) at different time points as mentioned in Table 3. After washing in phosphate buffered saline (PBS), cells were fixed in ice-cold 70% ethanol and stored at −20° C. until further analysis.
(§3) Before analysis, cells were washed twice with PBS to remove the fixative and re-suspended in PBS containing 50 μg/mL propidium iodide and 50 μg/mL RNaseA. After incubation at room temperature (20-35° C.) for 20 min, cells were analyzed using flow cytometry. A Becton Dickinson FACS Calibur flow cytometer (BD, USA) was used for these studies. The argon ion laser set at 488 nm was used as an excitation source. Cells with DNA content between 2n and 4n were designated as being in G1, S and G2/M phases of the cell cycle, as defined by the level of red fluorescence. […] The number of cells in each cell cycle compartment was expressed as a percentage of the total number of cells present. The results are shown in Table 3 and graphically presented in FIG. 3A (MCF-7 cell lines) and FIG. 3B (MDA-MB-231 cell lines).
Comparison of the effect of Compound A and PARP inhibitor BSI-201 (Iniparib developed by Sanofi-Aventis. BSI-201 is prepared in-house) on cell cycle progression and apoptosis was evaluated in two TNBC cell lines. The asynchronous human TNBC cell lines MDA-MB-231 and MDA-MB-468 were seeded in […] tissue culture flask at a density of 0.5×10^6 cells per flask in RPMI 1460 with 10% FCS. After 24 h, cells were treated either with 1.5 and 3.0 μM of Compound A or 50 μM of PARP inhibitor BSI-201 for 72 h. After the incubation cells were harvested (trypsinised) and processed as given in example 6.
On the technique in general: A flow cytometer gives signals particle by particle.

The subject of the next test is MCF-7. The test is described as above. In kind it is cell-based, human. To be noted: 4.5 μM. Here is the method: as §2, §3
Test [1] concerns PARP. Description: Western blot for PARP cleavage in MDA-MB-468. The format is cell-based, human. To be noted: 1.5 μM and 5 μM, 24 h. Here is the method:
as §1

For test [2], the system named is MDA-MB-231, MDA-MB-468 and MCF-7 cell lines. Description: Clonogenic assay or colony forming assay. In kind it is cell-based, human. To be noted: IC10, IC30, IC50 for 48 h, then 14 days drug-free. The procedure:
MDA-MB-231, MDA-MB-468 and MCF-7 cell lines were seeded in RPMI 1460 with 10% FCS, at a density of 1500 cells/well in six well plates. […] The medium was removed at the end of the treatment and incubated in fresh medium (without drug) for 14 days. After 14 days the medium was aspirated and colonies were fixed with methanol and acetic acid mixture in the proportion of 2:1, rinsed with water and the fixation procedure was repeated. The plates were dried and colonies stained with 0.1% crystal violet for 5 min. The wells were finally rinsed with water and dried.

The subject of the next test is HUVEC. Description: Endothelial cell tube formation assay. In kind it is cell-based, human. From the text:
The Tube Formation Assay represents a simple but powerful model for studying inhibition and induction of angiogenesis. The assay relies on the endothelial cells' ability to form distinct blood-vessel like tubules in an extracellular matrix (BD Matrigel™ Matrix, USA) where they can subsequently be visualized by microscopy. It enables analysis of angiogenic tubules in a 3 dimensional matrix that better resembles the native physiological environment.
Confluent HUVEC (Human umbilical vein endothelial cells) were cultured with above mentioned endothelial medium to desired confluence. For HUVEC 60-80% confluence is recommended.
Endothelial cell suspensions were prepared by trypsinizing the cell monolayers and resuspending the cells in culture medium with 5-10% serum. (0.5−1)×10^6 cells per 180 μL of cell suspension were added (per well of 24 well plate) to the medium (BD Matrigel Matrix) which, had been thawed at 4° C. This suspension was then added to the plates and kept for incubation. The cells were allowed to adhere for 2-3 h and then Compound A (1 μM), Rotenone (1 μM) (Sigma-Aldrich, USA) and Topotecan (3 μM) (Sigma-Aldrich, USA) (20 μL of 10× stocks) were added to the respective wells. DMSO was used as the control. After 24-48 h of incubation the cells were observed under a phase contrast microscope (Zeiss Axio Observer, Germany) for tube formation and angiogenesis.

The target of test [3] is T1, PARP (Homo sapiens, UniProt P09874).
T1 construct: endogenous in cells; host or cells: MDA-MB-231; MDA-MB-468
T1 sequence (P09874 2-1014 limits assumed): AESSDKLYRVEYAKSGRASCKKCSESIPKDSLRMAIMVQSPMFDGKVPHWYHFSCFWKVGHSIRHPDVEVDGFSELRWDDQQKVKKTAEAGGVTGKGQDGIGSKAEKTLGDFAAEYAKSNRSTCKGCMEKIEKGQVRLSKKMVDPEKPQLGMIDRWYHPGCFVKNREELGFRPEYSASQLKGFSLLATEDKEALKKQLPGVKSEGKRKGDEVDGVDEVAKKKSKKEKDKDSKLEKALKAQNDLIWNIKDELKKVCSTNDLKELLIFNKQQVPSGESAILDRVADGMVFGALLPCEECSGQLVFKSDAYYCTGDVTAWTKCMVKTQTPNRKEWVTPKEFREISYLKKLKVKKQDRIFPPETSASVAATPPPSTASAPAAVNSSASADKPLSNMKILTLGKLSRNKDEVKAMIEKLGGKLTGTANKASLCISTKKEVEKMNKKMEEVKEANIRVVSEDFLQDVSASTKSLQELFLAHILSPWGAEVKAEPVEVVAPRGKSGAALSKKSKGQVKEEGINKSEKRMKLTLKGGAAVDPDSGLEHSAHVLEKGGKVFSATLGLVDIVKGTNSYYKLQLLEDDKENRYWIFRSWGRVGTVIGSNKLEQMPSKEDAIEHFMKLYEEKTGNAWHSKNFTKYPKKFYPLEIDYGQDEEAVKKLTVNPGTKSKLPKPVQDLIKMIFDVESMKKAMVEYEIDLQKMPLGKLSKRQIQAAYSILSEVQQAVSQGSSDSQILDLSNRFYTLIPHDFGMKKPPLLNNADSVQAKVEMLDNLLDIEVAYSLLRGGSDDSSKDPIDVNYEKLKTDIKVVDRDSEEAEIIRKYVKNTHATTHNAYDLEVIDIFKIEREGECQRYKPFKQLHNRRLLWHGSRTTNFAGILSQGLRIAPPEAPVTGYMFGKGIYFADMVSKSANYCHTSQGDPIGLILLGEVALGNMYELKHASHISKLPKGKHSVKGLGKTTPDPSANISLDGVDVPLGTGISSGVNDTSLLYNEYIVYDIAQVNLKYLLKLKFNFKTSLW
Description: PARP enzyme activity measured by PAR polymers (Western blot), MDA-MB-468. The format is cell-based. Particulars: 1.5 μM and 5 μM, 24 h, hydrochloride. Here is the method: To study PARP enzyme activity, PAR polymer formation was measured. MDA-MB-231 and MDA-MB-468 cells were seeded in RPMI 1460 medium with 10% FCS in […] tissue culture flask and incubated for 24 h. These cells were treated at 1.5 μM and 5 μM of Compound A for 24 h. The cells were harvested (trypsinised) and lysed using lysis buffer. Western blotting (Molecular Cancer Therapeutics, 2007, 6, 918-925) was done with specific antibody to PAR.
as §1

As to `CN1CC[C@@H](c2c(O)cc(O)c3c(=O)cc(-c4ccccc4Cl)oc23)[C@@H]1CO.Cl` [Compound A, (+)-trans-2-(2-Chloro-phenyl)-5,7-dihydroxy-8-(2-hydroxymethyl-1-methyl-pyrrolidin-3-yl)-chromen-4-one hydrochloride], the CDK4 level result in the test on CDK4 is listed as “dose dependent decrease”. In addition, in the test with cyclin D1, the “cyclin D1 level” value is given as “dose dependent decrease”. Besides, the pRb level entry in the test on pRb Ser 780 is on record as “dose dependent decrease”. Besides, the “% apoptosis at 72 h” value with MDA-MB-231 (1.5 μM, 72 h) came to 27.45%; in the test on MDA-MB-231 (3 μM, 72 h), 41.53%. Also, the “% Apoptosis” value with MDA-MB-231 (0 h) was found to be 1%; in the test on MDA-MB-231 (24 h), 45%; with MDA-MB-231 (48 h), 85%; with MDA-MB-231 (72 h), 85%; with MCF-7 (0 h) it was 1%; with MCF-7 (24 h), 52%. For the same molecule, the “% Apoptosis” value in the test with MCF-7 (48 h) turned out to be 80%; with MCF-7 (72 h), 88%. For the same molecule, the PARP cleavage result with PARP [1] is reported as “PARP cleavage was prominent”. Besides, the colony forming potential result in test [2] is on record as “inhibit the colony forming potential in a dose dependent manner”. Moreover, the “tube formation inhibition compared with standards” value with HUVEC (1 μM vs Rotenone 1 μM and Topotecan 3 μM) was “comparable to Rotenone (standard VEGF inhibitor) and better than Topotecan”. Besides, in the test on HUVEC (HUVEC in Matrigel, 1 μM, 24-48 h), the endothelial tube formation result is given as “effectively inhibited endothelial tube formation”. The “PARP enzyme activity (PAR polymer formation)” value at PARP [3] was “the formation of PAR polymers is not inhibited; also recorded: no change in the PAR polymer formation”.
